From PubChem BioAssay (NCI)
Where “and” joins values, the source holds several entries; their conditions need not be identical. Equal values may be shown once.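 Five concentrations, 48 hours, 96-well plates. GI50 marks 50% less growth. TGI marks complete inhibition of growth.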

What was measured:
Assay in all cases: DTP human tumour cell line panel, 48 h
786-0 renal = system: 786-0 renal
SF-268 CNS = system: SF-268 CNS
RPMI-8226 leukemia = system: RPMI-8226 leukemia
RXF 393 renal = system: RXF 393 renal
HL-60(TB) leukemia = system: HL-60(TB) leukemia
U251 CNS = system: U251 CNS
SK-OV-3 ovarian = system: SK-OV-3 ovarian
UACC-62 melanoma = system: UACC-62 melanoma

| Structure (SMILES) | GI50 (786-0 renal) | TGI (786-0 renal) | GI50 (SF-268 CNS) | TGI (SF-268 CNS) [µM] | GI50 (RPMI-8226 leukemia) [µM] | TGI (RPMI-8226 leukemia) [µM] | GI50 (RXF 393 renal) [µM] | TGI (RXF 393 renal) | GI50 (HL-60(TB) leukemia) [µM] | TGI (HL-60(TB) leukemia) [µM] | GI50 (U251 CNS) | TGI (U251 CNS) | GI50 (SK-OV-3 ovarian) | TGI (SK-OV-3 ovarian) | GI50 (UACC-62 melanoma) [µM] | TGI (UACC-62 melanoma) [µM] |
| --- | --- | --- | --- | --- | --- | --- | --- | --- | --- | --- | --- | --- | --- | --- | --- | --- |
| Cn1cc(C2=C(c3cn(CCCCN)c4ccccc34)C(=O)NC2=O)c2ccccc21 | > 25 µM | > 25 µM | > 25 µM | > 25 | > 25 | > 25 | > 25 | > 25 µM | > 25 | > 25 | > 25 µM | > 25 µM | > 25 µM | > 25 µM | > 25 | > 25 |
| S=C(Nc1ccc(Br)cc1)Nc1ccc(Br)cc1 | 38.5 µM | > 100 µM | 67.8 µM | > 100 | 4.05 | > 100 | > 100 | > 100 µM | 5.79 | > 100 | 8.39 µM | > 100 µM | > 100 µM | > 100 µM | 3.52 | > 100 |
| Fc1ccc2[nH]cc(-c3nonc3-c3c[nH]c4ccc(Br)cc34)c2c1 | 2.16 µM | 4.5 µM | 3.01 µM | 12.4 | 2.49 | 9.91 | 2.85 | 8.75 µM | 2.94 | 11.6 | 3.26 µM | 10.3 µM | 4.34 µM | 22.4 µM | 1.72 | 4.38 |
| O=c1c(Oc2ccc(F)cc2F)cc2cnc(NC3CCOCC3)nc2n1CCCO | > 25 µM | > 25 µM | > 25 µM | > 25 | > 25 | > 25 | > 25 | > 25 µM | > 25 | > 25 | > 25 µM | > 25 µM | > 25 µM | > 25 µM | > 25 | > 25 |
| Cc1cc(=O)oc2cc(OC(=O)N(C)C)c(Cl)cc12 | – | > 100 µM | – | > 100 | – | > 100 | – | 41.5 µM | – | > 100 | – | > 100 µM | – | – | – | 83.2 |
| CC(=O)OCC1OC(n2c(-c3ccc(Cl)cc3)ccc(C#N)c2=S)C(OC(C)=O)C(OC(C)=O)C1OC(C)=O (stereo not given) | 11.1 µM and 26.2 µM | 55.8 µM and 72.9 µM | 5.5 µM and 34.9 µM | > 100 | – | > 100 | – | 36.3 µM and 74.5 µM | – | > 100 | 10.4 µM and 61.4 µM | 40 µM and > 100 µM | 16.4 µM and 47.9 µM | 44.9 µM and > 100 µM | – | > 100 |
| CCCNNC(=O)/C=C/c1ccc(CNCCc2c(C)[nH]c3ccccc23)cc1 | 0.057 µM | 1.2 µM | 0.0744 µM | 0.951 | 0.0101 | 0.337 | 0.011 | 0.0479 µM | 0.0123 | 3.96 | 0.0306 µM | 0.207 µM | 0.0357 µM | 0.482 µM | 0.0237 | 0.0744 |
| COc1ccc(S(=O)(=O)N2CC(C)(C)CN(S(=O)(=O)c3ccc(OC)cc3)C2C(=O)NO)cc1 | > 20 µM | > 20 µM | > 20 µM | > 20 | 6.37 | > 20 | > 14.2 | > 20 µM | > 10.6 | > 20 | > 20 µM | > 20 µM | > 20 µM | > 20 µM | > 19.2 | > 20 |
